Data reported in PubChem BioAssay (NCI).
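Five compound concentrations were applied to cells in 96-well plates for 48 hours; endpoints were derived by simple linear interpolation of the resulting dose-response curve. GI50 marks 50% less growth. TGI: concentration producing complete growth inhibition.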

What was measured:
Assay in all cases: growth of human tumour cells (NCI), 48 h
[1] = system: SN12C renal
[2] = system: DU-145 prostate
[3] = system: EKVX NSCLC
[4] = system: SW-620 colon
[5] = system: OVCAR-8 ovarian
[6] = system: TK-10 renal
[7] = system: CAKI-1 renal
[8] = system: CCRF-CEM leukemia
[9] = system: PC-3 prostate
[10] = system: IGROV1 ovarian
[11] = system: MOLT-4 leukemia
[12] = system: SR leukemia
[13] = system: SK-MEL-5 melanoma
[14] = system: M14 melanoma
[15] = system: 786-0 renal
[16] = system: HCC-2998 colon
[17] = system: SK-MEL-28 melanoma
[18] = system: SF-268 CNS
[19] = system: MDA-N
[20] = system: RPMI-8226 leukemia
[21] = system: COLO 205 colon
[22] = system: NCI-H23 lung
[23] = system: HOP-62 NSCLC
[24] = system: SNB-75 CNS
[25] = system: K-562 leukemia
[26] = system: A549 NSCLC
[27] = system: SK-OV-3 ovarian
[28] = system: T-47D breast
[29] = system: HL-60(TB) leukemia
[30] = system: UACC-257 melanoma
[31] = system: SF-295 CNS
[32] = system: KM12 colon
[33] = system: UACC-62 melanoma
[34] = system: MCF7 breast
[35] = system: LOX IMVI melanoma
[36] = system: HT29 colon
[37] = system: MALME-3M melanoma
[38] = system: HCT-15 colon
[39] = system: OVCAR-3 ovarian
[40] = system: NCI-H522 lung
[41] = system: NCI-H460 lung
[42] = system: HCT-116 colon
[43] = system: ACHN renal
[44] = system: MDA-MB-231 breast
[45] = system: RXF 393 renal
[46] = system: BT-549 breast
[47] = system: A498 renal
[48] = system: MDA-MB-435
[49] = system: NCI/ADR-RES ovarian
[50] = system: OVCAR-5 ovarian
[51] = system: UO-31 renal
[52] = system: SF-539 CNS
[53] = system: SNB-19 CNS
[54] = system: HS 578T breast
[55] = system: U251 CNS
[56] = system: OVCAR-4 ovarian
[57] = system: HOP-92 NSCLC
[58] = system: SK-MEL-2 melanoma
[59] = system: NCI-H226 lung

Q: For COc1ccc(C2=C(OC(=O)N(C)C)c3cccn3-c3cc(C(F)(F)F)ccc3S2)cc1, which TGI [1] is on record?
A: > 10 µM

Q: What about the TGI [2] of the same molecule?
A: > 10 µM

Q: And the TGI [3]?
A: > 10 µM

Q: And the TGI [4]?
A: > 10 µM

Q: And the TGI [5]?
A: > 10 µM

Q: And the TGI [6]?
A: > 10 µM

Q: What about the TGI [7] of the same molecule?
A: > 10 µM

Q: And the TGI [8]?
A: > 10 µM

Q: What about the TGI [9] of the same molecule?
A: > 10 µM

Q: And the TGI [10]?
A: > 10 µM

Q: And the TGI [11]?
A: > 10 µM

Q: And the TGI [12]?
A: > 10 µM

Q: And the TGI [13]?
A: > 10 µM

Q: What about the TGI [14] of the same molecule?
A: > 10 µM

Q: What about the TGI [15] of the same molecule?
A: > 10 µM

Q: And the TGI [16]?
A: > 10 µM

Q: What about the TGI [17] of the same molecule?
A: > 10 µM

Q: And the TGI [18]?
A: > 10 µM

Q: And the TGI [19]?
A: > 10 µM

Q: What about the TGI [20] of the same molecule?
A: > 10 µM

Q: And the TGI [21]?
A: > 10 µM

Q: And the TGI [22]?
A: > 10 µM

Q: And the TGI [23]?
A: > 10 µM

Q: And the TGI [24]?
A: > 10 µM

Q: What about the TGI [25] of the same molecule?
A: > 10 µM

Q: What about the TGI [26] of the same molecule?
A: > 10 µM

Q: And the TGI [27]?
A: > 10 µM

Q: And the TGI [28]?
A: > 10 µM

Q: What about the TGI [29] of the same molecule?
A: > 10 µM

Q: What about the TGI [30] of the same molecule?
A: > 10 µM

Q: And the TGI [31]?
A: > 10 µM

Q: And the TGI [32]?
A: > 10 µM

Q: And the TGI [33]?
A: > 10 µM

Q: What about the TGI [34] of the same molecule?
A: > 10 µM

Q: And the TGI [35]?
A: > 10 µM

Q: And the TGI [36]?
A: > 10 µM

Q: What about the TGI [37] of the same molecule?
A: > 10 µM

Q: What about the TGI [38] of the same molecule?
A: > 10 µM

Q: Which TGI [39] does the source give for COC(=O)/C=C/c1ccccc1N=[S@](C)(=O)c1ccc(C)cc1 here?
A: 55.8 µM

Q: What about the TGI [1] of the same molecule?
A: > 100 µM

Q: What about the TGI [40] of the same molecule?
A: 7.99 µM

Q: What about the TGI [41] of the same molecule?
A: 49.9 µM

Q: And the TGI [42]?
A: 71.8 µM

Q: What about the TGI [2] of the same molecule?
A: > 100 µM

Q: What about the TGI [43] of the same molecule?
A: > 100 µM

Q: What about the TGI [3] of the same molecule?
A: > 100 µM

Q: What about the TGI [4] of the same molecule?
A: > 100 µM

Q: What about the TGI [5] of the same molecule?
A: > 100 µM

Q: What about the TGI [6] of the same molecule?
A: 71.9 µM

Q: What about the TGI [44] of the same molecule?
A: 94.4 µM

Q: And the TGI [45]?
A: 37.1 µM

Q: And the TGI [46]?
A: > 100 µM

Q: What about the TGI [47] of the same molecule?
A: 43.8 µM

Q: What about the TGI [48] of the same molecule?
A: 16.2 µM

Q: What about the TGI [7] of the same molecule?
A: > 100 µM

Q: And the TGI [8]?
A: 44.2 µM

Q: What about the TGI [49] of the same molecule?
A: 72.5 µM

Q: What about the TGI [9] of the same molecule?
A: > 100 µM

Q: And the TGI [50]?
A: > 100 µM

Q: What about the TGI [10] of the same molecule?
A: > 100 µM

Q: And the TGI [51]?
A: > 100 µM

Q: What about the TGI [11] of the same molecule?
A: > 100 µM

Q: And the TGI [52]?
A: > 100 µM

Q: And the TGI [12]?
A: 26.7 µM

Q: What about the TGI [13] of the same molecule?
A: 38.3 µM

Q: And the TGI [53]?
A: > 100 µM

Q: What about the TGI [14] of the same molecule?
A: 55.1 µM

Q: What about the TGI [15] of the same molecule?
A: > 100 µM

Q: What about the TGI [16] of the same molecule?
A: 50.1 µM

Q: What about the TGI [17] of the same molecule?
A: > 100 µM

Q: And the TGI [18]?
A: > 100 µM

Q: What about the TGI [54] of the same molecule?
A: 64.6 µM

Q: What about the TGI [20] of the same molecule?
A: 61.3 µM

Q: What about the TGI [21] of the same molecule?
A: 26.7 µM

Q: And the TGI [22]?
A: > 100 µM

Q: What about the TGI [55] of the same molecule?
A: 51 µM

Q: What about the TGI [23] of the same molecule?
A: > 100 µM

Q: What about the TGI [24] of the same molecule?
A: 36.1 µM

Q: And the TGI [25]?
A: > 100 µM

Q: What about the TGI [26] of the same molecule?
A: > 100 µM

Q: And the TGI [56]?
A: > 100 µM

Q: And the TGI [27]?
A: > 100 µM

Q: And the TGI [28]?
A: > 100 µM

Q: What about the TGI [29] of the same molecule?
A: 7.25 µM

Q: What about the TGI [30] of the same molecule?
A: 56.8 µM

Q: What about the TGI [31] of the same molecule?
A: 76.9 µM

Q: And the TGI [57]?
A: > 100 µM

Q: And the TGI [32]?
A: > 100 µM

Q: What about the TGI [33] of the same molecule?
A: > 100 µM

Q: What about the TGI [34] of the same molecule?
A: > 100 µM

Q: What about the TGI [35] of the same molecule?
A: > 100 µM

Q: And the TGI [36]?
A: > 100 µM

Q: And the TGI [58]?
A: 70.7 µM

Q: And the TGI [59]?
A: > 100 µM

Q: What about the TGI [37] of the same molecule?
A: > 100 µM

Q: And the TGI [38]?
A: > 100 µM

Q: Which results are given for CCOC(=O)c1ccc(NC(=O)N2CC(C)OC(C)C2)cc1 (configuration not stated)?
A: GI50 [39]: > 100 µM; TGI [39]: > 100 µM; GI50 [1]: > 100 µM; TGI [1]: > 100 µM; GI50 [40]: > 100 µM; TGI [40]: > 100 µM; GI50 [41]: > 100 µM; TGI [41]: > 100 µM; GI50 [42]: > 100 µM; TGI [42]: > 100 µM; GI50 [2]: > 100 µM; TGI [2]: > 100 µM; GI50 [43]: > 100 µM; TGI [43]: > 100 µM; GI50 [3]: > 100 µM; TGI [3]: > 100 µM; GI50 [4]: > 100 µM; TGI [4]: > 100 µM; GI50 [5]: > 100 µM; TGI [5]: > 100 µM; GI50 [6]: > 100 µM; TGI [6]: > 100 µM; GI50 [44]: > 100 µM; TGI [44]: > 100 µM; GI50 [45]: > 100 µM; TGI [45]: > 100 µM; GI50 [46]: > 100 µM; TGI [46]: > 100 µM; GI50 [47]: > 100 µM; TGI [47]: > 100 µM; GI50 [48]: > 100 µM; TGI [48]: > 100 µM; GI50 [7]: > 100 µM; TGI [7]: > 100 µM; GI50 [8]: > 100 µM; TGI [8]: > 100 µM; GI50 [49]: > 100 µM; TGI [49]: > 100 µM; GI50 [9]: > 100 µM; TGI [9]: > 100 µM; GI50 [50]: > 100 µM; TGI [50]: > 100 µM; GI50 [10]: > 100 µM; TGI [10]: > 100 µM; GI50 [51]: > 100 µM; TGI [51]: > 100 µM; GI50 [11]: > 100 µM; TGI [11]: > 100 µM; GI50 [52]: > 100 µM; TGI [52]: > 100 µM; GI50 [12]: > 100 µM; TGI [12]: > 100 µM; GI50 [13]: > 100 µM; TGI [13]: > 100 µM; GI50 [53]: > 100 µM; TGI [53]: > 100 µM; GI50 [14]: > 100 µM; TGI [14]: > 100 µM; GI50 [15]: > 100 µM; TGI [15]: > 100 µM; GI50 [16]: > 100 µM; TGI [16]: > 100 µM; GI50 [17]: > 100 µM; TGI [17]: > 100 µM; GI50 [18]: > 100 µM; TGI [18]: > 100 µM; GI50 [54]: > 100 µM; TGI [54]: > 100 µM; GI50 [20]: > 100 µM; TGI [20]: > 100 µM; GI50 [21]: > 100 µM; TGI [21]: > 100 µM; GI50 [22]: > 100 µM; TGI [22]: > 100 µM; GI50 [55]: > 100 µM; TGI [55]: > 100 µM; GI50 [23]: > 100 µM; TGI [23]: > 100 µM; GI50 [24]: > 100 µM; TGI [24]: > 100 µM; GI50 [25]: > 100 µM; TGI [25]: > 100 µM; GI50 [26]: > 100 µM; TGI [26]: > 100 µM; GI50 [56]: > 100 µM; TGI [56]: > 100 µM; GI50 [27]: > 100 µM; TGI [27]: > 100 µM; GI50 [28]: > 100 µM; TGI [28]: > 100 µM; GI50 [29]: > 100 µM; TGI [29]: > 100 µM; GI50 [30]: > 100 µM; TGI [30]: > 100 µM; GI50 [31]: > 100 µM; TGI [31]: > 100 µM; GI50 [57]: > 100 µM; TGI [57]: > 100 µM; GI50 [32]: > 100 µM; TGI [32]: > 100 µM; GI50 [33]: > 100 µM; TGI [33]: > 100 µM; GI50 [34]: > 100 µM; TGI [34]: > 100 µM; GI50 [35]: > 100 µM; TGI [35]: > 100 µM; GI50 [36]: > 100 µM; TGI [36]: > 100 µM; GI50 [58]: > 100 µM; TGI [58]: > 100 µM; GI50 [59]: > 100 µM; TGI [59]: > 100 µM; GI50 [37]: > 100 µM; TGI [37]: > 100 µM; GI50 [38]: > 100 µM; TGI [38]: > 100 µM
